PMC11730311 (Scientific Reports, 2025)
Starred links: 1 amine or outer side, 2 acyl side, 3 side chain; linkers in the order of their positions; H or OH if unused. Residues, ends and D or L forms follow the SMILES beside them. Groups on a side chain read outwards from the residue. No end group written: not given here. *: point of attachment. C20 diacid = O=C(O)CCCCCCCCCCCCCCCCCCC(=O)*; γGlu = O=C(O)[C@H](CCC(=O)[*:2])N[*:1]

Columns and labels:
[1] = target: human calcitonin gene-related peptide receptor (hCGRP-R) (Homo sapiens, UniProt O60894+Q16602); assay: cell-based
Sequence of human calcitonin gene-related peptide receptor (hCGRP-R) (Q16602 23-461): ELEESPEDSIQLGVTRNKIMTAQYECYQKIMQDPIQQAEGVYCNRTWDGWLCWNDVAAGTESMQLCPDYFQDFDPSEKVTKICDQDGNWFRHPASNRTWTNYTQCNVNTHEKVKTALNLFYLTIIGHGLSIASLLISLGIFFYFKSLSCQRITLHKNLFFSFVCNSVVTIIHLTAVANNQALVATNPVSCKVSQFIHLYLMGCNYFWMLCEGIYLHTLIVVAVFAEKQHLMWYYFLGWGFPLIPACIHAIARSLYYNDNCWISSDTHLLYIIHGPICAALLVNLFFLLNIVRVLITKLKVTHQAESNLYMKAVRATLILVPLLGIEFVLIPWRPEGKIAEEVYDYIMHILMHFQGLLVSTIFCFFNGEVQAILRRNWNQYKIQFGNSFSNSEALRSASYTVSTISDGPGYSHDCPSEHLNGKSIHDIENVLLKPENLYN
Sequence of human calcitonin gene-related peptide receptor (hCGRP-R) (O60894 27-148): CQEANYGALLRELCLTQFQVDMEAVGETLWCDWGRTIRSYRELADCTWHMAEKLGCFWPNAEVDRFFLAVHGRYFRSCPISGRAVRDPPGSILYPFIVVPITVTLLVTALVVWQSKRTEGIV

[2] = Pharmacokinetic pilot study, plasma exposure after IV dosing; format: in vivo, mouse; details: for half-life: male, NMRI, mouse, plasma, iv, 700 nmol/kg

Kb [1] [nM]	Molecule	half-life [2] [h]	difference in half-life versus hαCGRP8-37N25K-C20DA-γGlu ([2]; male NMRI mice, IV)
6.76	CC(C)C[C@H](NC(=O)CNC(=O)[C@H](C)NC(=O)[C@H](CC(C)C)NC(=O)[C@H](CCCNC(=N)N)NC(=O)[C@H](Cc1c[nH]cn1)NC(=O)[C@@H](NC(=O)[C@@H](N)C(C)C)[C@@H](C)O)C(=O)N[C@@H](CC(C)C)C(=O)N[C@@H](CO)C(=O)N[C@@H](CCCNC(=N)N)C(=O)N[C@@H](CO)C(=O)NCC(=O)NCC(=O)N[C@H](C(=O)N[C@H](C(=O)N[C@@H](CCCCN)C(=O)N[C@@H](CCCCNC(=O)CC[C@H](NC(=O)CCCCCCCCCCCCCCCCCCC(=O)O)C(=O)O)C(=O)N[C@@H](CC(N)=O)C(=O)N[C@@H](Cc1ccccc1)C(=O)N[C@H](C(=O)N1CCC[C@H]1C(=O)N[C@H](C(=O)N[C@@H](CC(N)=O)C(=O)N[C@H](C(=O)NCC(=O)N[C@@H](CO)C(=O)N[C@@H](CCCCN)C(=O)N[C@@H](CO)C(=O)N[C@@H](Cc1ccccc1)C(N)=O)C(C)C)[C@@H](C)O)C(C)C)C(C)C)C(C)C [hαCGRP8-37A36S, N25K-C20DA-γGlu] (H-VTHRLAGLLSRSGGVVKK([γGlu-C20 diacid])NFVPTNVGSKSF-NH2)	–	–
–	CC(C)C[C@H](NC(=O)CNC(=O)[C@H](C)NC(=O)[C@H](CC(C)C)NC(=O)[C@H](CCCNC(=N)N)NC(=O)[C@H](Cc1c[nH]cn1)NC(=O)[C@@H](NC(=O)[C@@H](N)C(C)C)[C@@H](C)O)C(=O)N[C@@H](CC(C)C)C(=O)N[C@@H](CCCCNC(=O)CC[C@H](NC(=O)CCCCCCCCCCCCCCCCCCC(=O)O)C(=O)O)C(=O)N[C@@H](CCCNC(=N)N)C(=O)N[C@@H](CO)C(=O)NCC(=O)NCC(=O)N[C@H](C(=O)N[C@H](C(=O)N[C@@H](CCCCN)C(=O)N[C@@H](CC(N)=O)C(=O)N[C@@H](CC(N)=O)C(=O)N[C@@H](Cc1ccccc1)C(=O)N[C@H](C(=O)N1CCC[C@H]1C(=O)N[C@H](C(=O)N[C@@H](CC(N)=O)C(=O)N[C@H](C(=O)NCC(=O)N[C@@H](CO)C(=O)N[C@@H](CCCCN)C(=O)N[C@@H](C)C(=O)N[C@@H](Cc1ccccc1)C(N)=O)C(C)C)[C@@H](C)O)C(C)C)C(C)C)C(C)C [S17K-C20DA-γGlu] (H-VTHRLAGLLK([γGlu-C20 diacid])RSGGVVKNNFVPTNVGSKAF-NH2)	12.3	–
1.66	VTHRLAGLLSRSGGVVKNNFVPTNVGSKSF-NH2 [hαCGRP8-37A36S]	–	–
–	CC(C)C[C@H](NC(=O)CNC(=O)[C@H](C)NC(=O)[C@H](CC(C)C)NC(=O)[C@H](CCCNC(=N)N)NC(=O)[C@H](Cc1c[nH]cn1)NC(=O)[C@@H](NC(=O)[C@@H](N)C(C)C)[C@@H](C)O)C(=O)N[C@@H](CC(C)C)C(=O)N[C@@H](CO)C(=O)N[C@@H](CCCNC(=N)N)C(=O)N[C@@H](CCCCNC(=O)CC[C@H](NC(=O)CCCCCCCCCCCCCCCCCCC(=O)O)C(=O)O)C(=O)NCC(=O)NCC(=O)N[C@H](C(=O)N[C@H](C(=O)N[C@@H](CCCCN)C(=O)N[C@@H](CC(N)=O)C(=O)N[C@@H](CC(N)=O)C(=O)N[C@@H](Cc1ccccc1)C(=O)N[C@H](C(=O)N1CCC[C@H]1C(=O)N[C@H](C(=O)N[C@@H](CC(N)=O)C(=O)N[C@H](C(=O)NCC(=O)N[C@@H](CO)C(=O)N[C@@H](CCCCN)C(=O)N[C@@H](C)C(=O)N[C@@H](Cc1ccccc1)C(N)=O)C(C)C)[C@@H](C)O)C(C)C)C(C)C)C(C)C [S19K-C20DA-γGlu] (H-VTHRLAGLLSRK([γGlu-C20 diacid])GGVVKNNFVPTNVGSKAF-NH2)	13.7	~ 6 h
–	CC(C)C[C@H](NC(=O)CNC(=O)[C@H](C)NC(=O)[C@H](CC(C)C)NC(=O)[C@H](CCCNC(=N)N)NC(=O)[C@H](Cc1c[nH]cn1)NC(=O)[C@@H](NC(=O)[C@@H](N)C(C)C)[C@@H](C)O)C(=O)N[C@@H](CC(C)C)C(=O)N[C@@H](CO)C(=O)N[C@@H](CCCNC(=N)N)C(=O)N[C@@H](CO)C(=O)N[C@@H](CCCCNC(=O)CC[C@H](NC(=O)CCCCCCCCCCCCCCCCCCC(=O)O)C(=O)O)C(=O)NCC(=O)N[C@H](C(=O)N[C@H](C(=O)N[C@@H](CCCCN)C(=O)N[C@@H](CC(N)=O)C(=O)N[C@@H](CC(N)=O)C(=O)N[C@@H](Cc1ccccc1)C(=O)N[C@H](C(=O)N1CCC[C@H]1C(=O)N[C@H](C(=O)N[C@@H](CC(N)=O)C(=O)N[C@H](C(=O)NCC(=O)N[C@@H](CO)C(=O)N[C@@H](CCCCN)C(=O)N[C@@H](C)C(=O)N[C@@H](Cc1ccccc1)C(N)=O)C(C)C)[C@@H](C)O)C(C)C)C(C)C)C(C)C [G20K-C20DA-γGlu] (H-VTHRLAGLLSRSK([γGlu-C20 diacid])GVVKNNFVPTNVGSKAF-NH2)	7.5	–
–	CC(C)C[C@H](NC(=O)[C@H](CCCNC(=N)N)NC(=O)[C@H](Cc1c[nH]cn1)NC(=O)[C@@H](NC(=O)[C@@H](N)C(C)C)[C@@H](C)O)C(=O)N[C@@H](C)C(=O)N[C@@H](CCCCNC(=O)CC[C@H](NC(=O)CCCCCCCCCCCCCCCCCCC(=O)O)C(=O)O)C(=O)N[C@@H](CC(C)C)C(=O)N[C@@H](CC(C)C)C(=O)N[C@@H](CO)C(=O)N[C@@H](CCCNC(=N)N)C(=O)N[C@@H](CO)C(=O)NCC(=O)NCC(=O)N[C@H](C(=O)N[C@H](C(=O)N[C@@H](CCCCN)C(=O)N[C@@H](CC(N)=O)C(=O)N[C@@H](CC(N)=O)C(=O)N[C@@H](Cc1ccccc1)C(=O)N[C@H](C(=O)N1CCC[C@H]1C(=O)N[C@H](C(=O)N[C@@H](CC(N)=O)C(=O)N[C@H](C(=O)NCC(=O)N[C@@H](CO)C(=O)N[C@@H](CCCCN)C(=O)N[C@@H](C)C(=O)N[C@@H](Cc1ccccc1)C(N)=O)C(C)C)[C@@H](C)O)C(C)C)C(C)C)C(C)C [G14K-C20DA-γGlu] (H-VTHRLAK([γGlu-C20 diacid])LLSRSGGVVKNNFVPTNVGSKAF-NH2)	10.1	–

Molecule	Kb [1] [nM]	half-life [2] [h]	difference in half-life versus hαCGRP8-37N25K-C20DA-γGlu ([2]; male NMRI mice, IV)
CC(C)C[C@H](NC(=O)CNC(=O)[C@H](C)NC(=O)[C@H](CC(C)C)NC(=O)[C@H](CCCNC(=N)N)NC(=O)[C@H](Cc1c[nH]cn1)NC(=O)[C@@H](NC(=O)[C@@H](N)C(C)C)[C@@H](C)O)C(=O)N[C@@H](CC(C)C)C(=O)N[C@@H](CO)C(=O)N[C@@H](CCCNC(=N)N)C(=O)N[C@@H](CO)C(=O)NCC(=O)NCC(=O)N[C@H](C(=O)N[C@H](C(=O)N[C@@H](CCCCN)C(=O)N[C@@H](CCCCNC(=O)CC[C@H](NC(=O)CCCCCCCCCCCCCCCCCCC(=O)O)C(=O)O)C(=O)N[C@@H](CC(N)=O)C(=O)N[C@@H](Cc1ccccc1)C(=O)N[C@H](C(=O)N1CCC[C@H]1C(=O)N[C@H](C(=O)N[C@@H](CC(N)=O)C(=O)N[C@H](C(=O)NCC(=O)N[C@@H](CO)C(=O)N[C@@H](CCCCN)C(=O)N[C@@H](C)C(=O)N[C@@H](Cc1ccccc1)C(N)=O)C(C)C)[C@@H](C)O)C(C)C)C(C)C)C(C)C [hαCGRP8-37N25K-C20DA-γGlu]	4.68	7.3	–
